Assay results taken from patent US20230382915A1, “GCN2 AND PERK KINASE INHIBITORS AND METHODS OF USE THEREOF” (Deciphera Pharmaceuticals, LLC, priority 2021, published 2023).

Assays:
Assay type in all cases: cell-based
[1] = tested on: ATF4 in HCT116 colorectal cancer cells; assay: HCT116 amino acid starved (-AA) ATF4 Western blot; details: Homo sapiens, HCT-116, 4 h
Procedure: HCT116 colorectal cancer cells (catalog #CCL-247) were obtained from the American Type Culture Collect (ATTC, Manassas, VA). Briefly, cells were grown in RPMI 1640 supplemented with 10% heat inactivated fetal bovine serum (Invitrogen, Carlsbad, CA) and 1% Penicillin/Streptomycin/L-Glutamine at 37° C., 5% CO2, and 95% humidity. Cells were expanded until reaching 70-95% confluency at which point they were subcultured or harvested for assay use. Cells were seeded in 12-well culture plate at five hundred thousand cells per well in 1 mL complete growth medium and incubated overnight at 37° C., 5% CO2, and 95% humidity. The next day each well was replaced with 1 mL Earle's Balanced Salt Solution (EBSS, Invitrogen, Carlsbad, CA) supplemented with 10% Dialyzed Fetal Bovine Serum, 5.5 mM Glucose, 1% Penicillin/Streptomycin and 1% Vitamin solution (thermo #11120052). A serial dilution of test compound was dispensed into well. Plates were incubated for 4 h at 37° C., 5% CO2, and 95% humidity. […] Western blot was performed on each lysate to quantify phospho-GCN2 (Thr899), total GCN2, ATF4 and beta-Actin. […] Data were analyzed using GraphPad Prism software (GraphPad, San Diego, CA) to calculate IC50 values.

[2] = tested on: HT-1080 solid tumor spheroids; assay: Spheroid proliferation assay, HT-1080; details: Homo sapiens, HT-1080, 120 h; 5 days, FIG. 11C; read-out: inhibition of cell proliferation IC50, single agent
Procedure: Non Small Cell Lung Cancer (NSCLC) cell lines H358 (catalog #CRL-5807) and H2030 (catalog #CRL-5914), and fibrosarcoma line HT-1080 (catalog […]) were obtained from the American Type Culture Collect (ATTC, Manassas, VA). Cells were grown in RPMI-1640 medium supplemented with 10% heat-inactivated fetal bovine serum and 1% Penicillin/Streptomycin/L-Glutamine (Invitrogen, Carlsbad, CA) at 37° C., 5% CO2, and 95% humidity and maintained at 50-80% confluency until use. 500-1000 cells were plated in 96-well ultra-low attachment plates (Corning, Glendale, AZ) with complete growth media at 80 μL/well and incubated overnight at 37° C., 5% CO2, and 95% humidity to form spheroids. The next day, serial dilutions of test compounds were prepared in complete growth media and 20 μL/well media containing compound titers was added to spheroids in triplicate. Spheroids were then incubated with test compounds for 5 days under the same conditions. At the end of the incubation, spheroids were lysed with 100 μL/well CellTiter-Glo 3D Viability Assay (Promega, Madison, WI) and luminescence was detected using Synergy2 or equivalent reader (Biotek, Winooski, VT). Data was analyzed using GraphPad Prism software (GraphPad, San Diego, CA) to calculate IC50 values.

HT-1080 spheroids = assay: Spheroid Western blot assay, HT-1080
Procedure: NSCLC cell lines H358 (catalog #CRL-5807) and H2030 (catalog #CRL-5914), and fibrosarcoma cell line HT-1080 (catalog […]) were obtained from the American Type Culture Collect (ATTC, Manassas, VA). Cells were grown in RPMI-1640 medium supplemented with 10% heat-inactivated fetal bovine serum and 1% Penicillin/Streptomycin/L-Glutamine (Invitrogen, Carlsbad, CA) at 37° C., 5% CO2, and 95% humidity and maintained at 50-80% confluency until use. Cells were plated at 500,000 cells/well in 24-well Elplasia plates (Corning, Glendale, AZ) with complete growth media at 1 mL/well and incubated overnight at 37° C., 5% CO2, and 95% humidity to form spheroids. The next day, serial dilutions of test compounds were prepared in complete growth media and 500 μL existing media was removed from each well and replaced with fresh media containing compound titers. Spheroids were then incubated with test compounds for 4 hours or 24 hours under the same conditions. […] Western blots were performed to quantify phospho-GCN2 (R&D Systems, Minneapolis, MN), ATF4, CHOP, cleaved PARP, cleaved Caspase 3 and 7, and beta-Actin (Cell Signaling Technology, Danvers, MA). […]

In the case of `Cn1cc(-c2cccc(NS(=O)(=O)c3cc(Cl)cc(CO)c3Cl)c2F)c2c(N)ncnc21` [Example 2, N-(3-(4-amino-7-methyl-7H-pyrrolo[2,3-d]pyrimidin-5-yl)-2-fluorophenyl)-2,5-dichloro-3-(hydroxymethyl)benzenesulfonamide], the IC50 [1] is reported as no more than 0.1 µM, the IC50 [2] is reported as 0.012 µM and the “upregulation of ATF4 (Western blot quantification)” value (HT-1080 spheroids) is reported as no more than 15 fold.
